Assay results reported in ChEMBL document CHEMBL3507680, “University of Dundee, Gates Library screen for HepG2 cell viability”.

Experiment: Human HepG2 cell viability assay in 384 well format
Type: toxicity, cell-based
Parameters: dose 125 nL, time 70.5 hour; concentration not given beside the values
Settings: HepG2 cells, read-out: Inhibition

SMILES | cytotoxicity at 70.5 h [%]
CN(C)c1cc(CNC(=O)c2c(F)cccc2F)ccn1 | 1.27
O=C(NCCCN1CCCCC1)c1n[nH]c(=O)c2ccccc12 | 25
CN(C)c1cc(CNC(=O)c2ccccc2S(C)(=O)=O)ccn1 | 0.46
O=C(Cc1ccc(F)c(Br)c1)NC1CCN(CC(F)F)CC1 | 3.07
CC(c1ccc(F)cc1)N1CCN(Cc2nccn2C)CC1 (stereo not given) | 4.48
COc1cc(CNc2cc(N3CCCC3CO)ncn2)ccn1 (stereo not given) | 24.7
COc1nc(C)ccc1CNc1cc(N2CCCC2CO)ncn1 (stereo not given) | 7.33
OCC1CCCN1c1cc(NCc2cccc3cccnc23)ncn1 (stereo not given) | 3.27
CC(C)c1nc(CN(C)C2CCN(CCS(C)(=O)=O)C2)no1 (stereo not given) | -4.02
CCc1nc(CN(C)C2CCN(CC(=O)N(C)C)C2)no1 (stereo not given) | -5.61
Cc1ccc(NC2CCN(C(=O)c3cccnc3N(C)C)CC2)nn1 | 0.412
O=C(NCc1ccco1)N(CCCO)C1CCCc2ccccc21 (stereo not given) | -5.76
CCc1[nH]ncc1C(=O)N1CCCC(n2nc(C)cc2C)C1 (stereo not given) | -10.3
CN(CCC(=O)N1CCc2sccc2C1)Cc1cnn(C)c1 | -2.72
CC(C)c1ncc2c(n1)CN(CCCc1nc3ccccc3o1)CC2 | -3.98
CCc1ccc(C(N)c2cccc(S(C)(=O)=O)c2)cc1 (stereo not given) | -4.78
CCc1nc(C2CCCN2Cc2cnc(C)cn2)no1 (stereo not given) | -3.7
Cc1cnc(CN2CCCC2c2noc(C(C)C)n2)cn1 (stereo not given) | 1.04
CN(CCC(=O)N1CCc2sccc2C1)Cc1cc(Br)cs1 | -4.84
Cc1noc(C)c1CC(=O)N1CCc2sccc2C1 | -4.18
COc1ccc(C)cc1C(C)NC(=O)CCn1cncn1 (stereo not given) | -5.61
O=C(c1cccc2ncccc12)N1CCC(Nc2cccnn2)CC1 | -3.36

SMILES | cytotoxicity at 70.5 h [%]
CS(=O)(=O)c1cccc(C(N)c2ccccc2)c1 (stereo not given) | -1.27
Cc1cnc(CNC(=O)N(CCCO)C2CCc3ccccc32)s1 (stereo not given) | 0.605
CN(Cc1noc(C2CC2)n1)C1CCN(CCc2cnn(C)c2)C1 (stereo not given) | 14.4
CC(C)c1cnc(CN(C)C2CCN(CCCc3cnn(C)c3)C2)o1 (stereo not given) | 20.9
c1ccc(-c2nc(CN3CCn4c(nnc4C4CC4)C3)co2)cc1 | -9.3
CN(CC(=O)NC1(C)CCS(=O)(=O)C1)Cc1ccc(F)c(F)c1 (stereo not given) | 3.42
COc1cccc(CN(C)CC(=O)NC2(C)CCS(=O)(=O)C2)c1 (stereo not given) | -15.4
Cc1cc(C(=O)N2CCN(Cc3ccsc3)CC2)c(C)n1C1CC1 | -14.9
c1ccc2c(OCCN3CCn4c(nnc4C4CC4)C3)cccc2c1 | 2.06
c1ccc(Cc2nnc(CN3CCn4c(nnc4C4CC4)C3)o2)cc1 | -13.3
O=C(NCCN1C(=O)c2ccccc2C1=O)c1scnc1Cl | -7.67
NC(=O)CN1CCCN(C(=O)Cc2ccc(Br)cc2)CC1 | -13.7
O=C(NCCNC(=O)c1scnc1Cl)c1ccoc1 | 5.67
COc1ccc(CN2CCN(C(=O)c3ccc(C)n3C)CC2)cc1 | -11.9
Cc1csc(N2CCCN(C(=O)c3occc3C)CC2)n1 | 1.54
NC(=O)CN1CCCN(C(=O)Cc2ccc(F)cc2)CC1 | -13.3
NC(=O)CN1CCCN(C(=O)Cc2cccc(C(F)(F)F)c2)CC1 | 4.42
Cc1ccc(C(=O)N2CCN(Cc3cccs3)CC2)n1C | -14.9
Cc1ccoc1-c1nnc(CN2CCn3c(C)nnc3C2)o1 | -0.634
Cc1ncc2c(n1)CN(CC(=O)Nc1ccc(Cl)cn1)CC2 | -13.8
CCc1ncc2c(n1)CN(CC(=O)Nc1cc(C)no1)CC2 | -0.924
Cc1ccc(NC2CCN(C(=O)c3cc(C)sc3C)CC2)nn1 | -11.8

SMILES | cytotoxicity at 70.5 h [%]
Cc1ccoc1-c1nnc(CN2CCn3c(nnc3C(C)C)C2)o1 | -2.59
Cc1ncc(CN2CCCC(c3cc(C(F)(F)F)[nH]n3)C2)s1 (stereo not given) | -1.49
CCc1ncc2c(n1)CN(CC(=O)Nc1cc(C)on1)CC2 | 12
Cc1csc(N2CCCN(C(=O)c3csc(C)n3)CC2)n1 | -10.6
Cc1nn(C)c(N(C)C)c1CNCc1ccc(OCCN(C)C)cc1 | 22.3
COc1c(CNCc2ccc(OCC(N)=O)cc2)c(C)nn1C | 7.56
OC(COCc1cccs1)CN1CCc2c(ncn2C2CC2)C1 (stereo not given) | -2.16
CCOCCN1CCN(Cc2cccc(C(=O)N(C)C)c2)CC1C (stereo not given) | -9.62
CCc1noc(C(C)N2CCN(CC)CC2)n1 (stereo not given) | -8.24
CCc1noc(C(C)N2CCC(O)CC2)n1 (stereo not given) | -10.2
NC(=O)Cn1cc(NC(=O)N2CCCC2)cn1 | -29.6
Cn1cnc2c1CCN(Cc1cccc(OCC(N)=O)c1)C2 | -9.69
Cc1cc(CN2CCCC2Cn2cncn2)no1 (stereo not given) | 26.7
COc1ccc(CNCC2CCN(CC(C)O)CC2)c2ccccc12 (stereo not given) | 29.8
CCn1ccnc1CN1CCCN(C(=O)c2cc(Cl)c[nH]2)CC1 | -12.8
Cc1cnn(CC2CCCN2C(=O)c2ccc(C(N)=O)cn2)c1 (stereo not given) | -10.6
O=C1CCC(C(=O)NCc2nn(-c3ccccc3)c3c2CCC3)CN1 (stereo not given) | 4.23
CCn1c(C)cc(C(=O)N2CCCC(n3nc(C)nc3C)C2)c1C (stereo not given) | -7.33
CCn1nc2c(cc1=O)CN(Cc1nc(-c3ccccn3)no1)CC2 | -1.12
CCn1nc2c(cc1=O)CN(Cc1nc(-c3ccsc3)no1)CC2 | -22.4
CC(C)c1cc(CNC(=O)N2CCC(Cc3cnn(C)c3)C2)on1 (stereo not given) | -11.4
O=C(NCc1nn(-c2ccccc2)c2c1CCC2)N1CCSCC1 | 32.7

SMILES | cytotoxicity at 70.5 h [%]
CCn1ccnc1CN1CCN(CC(O)c2ccccc2)CC1 (stereo not given) | -15.4
CC(C)c1ncncc1C(=O)NCCN1CCCS1(=O)=O | -12.7
Cc1cccc(C(=O)N2CCCN(Cc3cnn(C)c3)CC2)n1 | -19.9
COc1cccc(COCC(=O)N2CCCC(n3ccnc3C)C2)c1 (stereo not given) | -15.7
CCn1ccnc1CN1CCCN(C(=O)c2cccc(C#N)c2)CC1 | -15.8
c1ncn(CC2CCCN2Cc2cn3ccsc3n2)n1 (stereo not given) | -16.9
COCCc1noc(CN2CCCCC2Cn2cc(C)cn2)n1 (stereo not given) | -11.7
CCc1nc(CNCC2CCCN2c2cc(NC)ncn2)cs1 (stereo not given) | -4.75
CC(C)c1nnc2n1CCN(Cc1csc(CC(=O)N(C)C)n1)C2 | 49.9
CCc1noc(C(C)N2CCN(Cc3ncc(C(C)(C)C)o3)CC2)n1 (stereo not given) | 11.8
Cc1cc(C(C)C(=O)N2CCCN(Cc3cscn3)CC2)c(C)o1 (stereo not given) | 18.7
COC(C(=O)N1CCCN(Cc2cscn2)CC1)c1ccccc1 (stereo not given) | 12.8
CCc1noc(C(C)N2CCN(Cc3noc(C)n3)CC2)n1 (stereo not given) | 26.6
Cc1cc(C)n(CC2CN(Cc3nnsc3Cl)CCO2)n1 (stereo not given) | -13
Cc1ccc(NC2CCN(C(=O)Cn3nc(C)cc3C)CC2)nn1 | -6.3
COc1ccc(-c2noc(CN3CCc4cncnc4C3)n2)cc1 | -8.79
O=C(c1cccnc1N1CCOCC1)N1CCCC(n2ccnc2)C1 (stereo not given) | -6.03
Cc1oc(C)c(C(=O)NCc2ccccn2)c1C | -6.3
Cc1ccc(C(N)c2cccc(S(C)(=O)=O)c2)c(C)c1 (stereo not given) | -7.42
